Patent publication US5972639A, “Fluorescence-based assays for measuring cell proliferation” (Irori, priority 1997, dated 1999)
Where two headings read alike, the source gives them in different places.

How the values were obtained:
acid phosphatases = test: Km of BBTP for acid phosphatases; assay type: biochemical; settings: see EXAMPLES
From the text: (§1) Km of substrate for acid phosphatase for a variety of cells

T47-D acid phosphatase = test: Km of substrate for acid phosphatase, T47-D; assay type: biochemical; settings: T47-D human breast carcinoma; BBTP 1.5 mM, 1 h at RT
From the text: as §1

CHO-K1 acid phosphatase = test: acid phosphatase assay of CHO-K1 with AttoPhos/BBTP; assay type: biochemical, Chinese hamster; settings: for Fluorescence: A/2 plate
Protocol: (§2) To establish a relation between acid phosphatase activity and cell numbers, cells were seeded at various densities (50-20,000) onto replicate plastic 96-well plates or half area 96-well microtiter plates (Costar) and incubated at 37° C. for 3.5 hours to allow attachment. Cell number was then assessed by measuring intracellular acid phosphatase with three different substrates: p-nitrophenyl phosphate, which has a calorimetric endpoint, 4-methylumbelliferyl phosphate (MUP) and 2'-[2-benzthiazoyl]-6'-hydoxybenzothiazole phosphate bis-[2-amino-2-methyl-13-propanediol] salt (AttoPhos™), which have fluorometric endpoints.
(§3) Plates were incubated for 1 hour at room temperature and the reaction was terminated with 50 μL of stop solution (240 mM diethanolamine, pH 10). Fluorescence was measured at excitation wavelength of 450 nm and emission wavelength of 580 nm using a fluorimeter (Cytofluor 4000, PerSeptive Biosystems). Nonenzymatic hydrolysis was determined in wells containing no cells and subtracted from the experimental values. Since the background is subtracted, in general, the actual signal to noise ratios at lower cell numbers is better than what presented in the table.

Molt-4 acid phosphatase = test: Km of substrate for acid phosphatase, Molt-4; assay type: biochemical; settings: Molt-4 suspension, human acute lymphoblastic leukemia; BBTP 1 mM, 1 h at RT
From the text: as §1

Alkaline phosphatase = settings: reported in U.S. Pat. No. 5,424,440; read-out: Km of the substrate with alkaline phosphatase; cited from earlier work
[1] = tested on: HDMEC intracellular acid phosphatase; test: acid phosphatase assay of HDMEC with AttoPhos/BBTP; assay type: biochemical, human; settings: for Fluorescence: A/2 plate
Protocol: as §2, §3

[2] = tested on: 3T3 cells acid phosphatase; test: acid phosphatase assay of 3T3 cells with AttoPhos/BBTP; assay type: biochemical, mouse; settings: for Fluorescence: 96-well plate, AttoPhos 500 μM
Protocol: as §2
as §3, with “After washing with D-PBS, 150 μL 0.5 mM AttoPhos™ in 0.1 M Tris-citrate (0.1 M Tris-base, 0.1 M citric acid, pH 6.5 containing 0.25% Triton X-100) was added to each well and placed on an orbital shaker for 5 minutes as described for MUP. Plates” for “Plates”

HL-60 acid phosphatase = test: Km of substrate for acid phosphatase, HL-60; assay type: biochemical; settings: HL-60 suspension, human promyelocytic leukemia; BBTP 1 mM, 1 h at RT
From the text: as §1

K562 acid phosphatase = test: Km of substrate for acid phosphatase, K562; assay type: biochemical; settings: K562 suspension, human chronic myelogenous leukemia; BBTP 1 mM, 1 h at RT
From the text: as §1

2008 acid phosphatase = test: Km of substrate for acid phosphatase, 2008; assay type: biochemical; settings: 2008 human ovarian carcinoma; BBTP 1 mM, 1 h at RT
From the text: as §1

[3] = tested on: HUVEC intracellular acid phosphatase; assay type: biochemical, human

Compound: O=P(O)(O)Oc1ccc2nc(-c3nc4ccccc4s3)sc2c1 [BBTP, 2'(2-benzothiazoyl)-6'-hydroxy-benzthiazole phosphate]
- Km (acid phosphatases): ~100 µM
- Km (T47-D acid phosphatase): 261 µM
- Fluorescence (CHO-K1 acid phosphatase; 250 CHO-K1/well, AttoPhos 100 μM): 552 ± 26 RFU
- Fluorescence (CHO-K1 acid phosphatase; 250 CHO-K1/well, AttoPhos 250 μM): 683 ± 36 RFU
- Fluorescence (CHO-K1 acid phosphatase; 250 CHO-K1/well, AttoPhos 500 μM): 721 ± 90 RFU
- Fluorescence (CHO-K1 acid phosphatase; 500 CHO-K1/well, AttoPhos 100 μM): 790 ± 70 RFU
- Fluorescence (CHO-K1 acid phosphatase; 500 CHO-K1/well, AttoPhos 250 μM): 1008 ± 21 RFU
- Fluorescence (CHO-K1 acid phosphatase; 500 CHO-K1/well, AttoPhos 500 μM): 1010 ± 126 RFU
- Fluorescence (CHO-K1 acid phosphatase; 1,000 CHO-K1/well, AttoPhos 100 μM): 1031 ± 138 RFU
- Fluorescence (CHO-K1 acid phosphatase; 1,000 CHO-K1/well, AttoPhos 250 μM): 1296 ± 64 RFU
- Fluorescence (CHO-K1 acid phosphatase; 1,000 CHO-K1/well, AttoPhos 500 μM): 1400 ± 47 RFU
- Fluorescence (CHO-K1 acid phosphatase; 2,000 CHO-K1/well, AttoPhos 100 μM): 2179 ± 156 RFU
- Fluorescence (CHO-K1 acid phosphatase; 2,000 CHO-K1/well, AttoPhos 250 μM): 2628 ± 148 RFU
- Fluorescence (CHO-K1 acid phosphatase; 2,000 CHO-K1/well, AttoPhos 500 μM): 2936 ± 382 RFU
- Fluorescence (CHO-K1 acid phosphatase; 4,000 CHO-K1/well, AttoPhos 100 μM): 3905 ± 234 RFU
- Fluorescence (CHO-K1 acid phosphatase; 4,000 CHO-K1/well, AttoPhos 250 μM): 4162 ± 122 RFU
- Fluorescence (CHO-K1 acid phosphatase; 4,000 CHO-K1/well, AttoPhos 500 μM): 4832 ± 357 RFU
- Fluorescence (CHO-K1 acid phosphatase; 8,000 CHO-K1/well, AttoPhos 100 μM): 7785 ± 684 RFU
- Fluorescence (CHO-K1 acid phosphatase; 8,000 CHO-K1/well, AttoPhos 250 μM): 8356 ± 237 RFU
- Fluorescence (CHO-K1 acid phosphatase; 8,000 CHO-K1/well, AttoPhos 500 μM): 9138 ± 440 RFU
- Fluorescence (CHO-K1 acid phosphatase; 12,000 CHO-K1/well, AttoPhos 100 μM): 12481 ± 462 RFU
- Fluorescence (CHO-K1 acid phosphatase; 12,000 CHO-K1/well, AttoPhos 250 μM): 12959 ± 124 RFU
- Fluorescence (CHO-K1 acid phosphatase; 12,000 CHO-K1/well, AttoPhos 500 μM): 12198 ± 83 RFU
- Km (CHO-K1 acid phosphatase; CHO-K1 Chinese hamster ovary, BBTP 0.5 mM, 1 h at RT): 172 µM
- Km (Molt-4 acid phosphatase): 130 µM
- Km (Alkaline phosphatase): ~2000 µM
- Fluorescence ([1]; 50 HDMEC/well, AttoPhos 100 μM): 829 ± 26 RFU
- Fluorescence ([1]; 50 HDMEC/well, AttoPhos 250 μM): 1014 ± 80 RFU
- Fluorescence ([1]; 50 HDMEC/well, AttoPhos 500 μM): 1496 ± 4.6 RFU
- Fluorescence ([1]; 100 HDMEC/well, AttoPhos 100 μM): 1609 ± 157 RFU
- Fluorescence ([1]; 100 HDMEC/well, AttoPhos 250 μM): 1545 ± 253 RFU
- Fluorescence ([1]; 100 HDMEC/well, AttoPhos 500 μM): 2032 ± 97 RFU
- Fluorescence ([1]; 250 HDMEC/well, AttoPhos 100 μM): 2347 ± 209 RFU
- Fluorescence ([1]; 250 HDMEC/well, AttoPhos 250 μM): 2383 ± 24 RFU
- Fluorescence ([1]; 250 HDMEC/well, AttoPhos 500 μM): 3686 ± 270 RFU
- Fluorescence ([1]; 500 HDMEC/well, AttoPhos 100 μM): 3682 ± 263 RFU
- Fluorescence ([1]; 500 HDMEC/well, AttoPhos 250 μM): 3998 ± 313 RFU
- Fluorescence ([1]; 500 HDMEC/well, AttoPhos 500 μM): 6404 ± 665 RFU
- Fluorescence ([1]; 1,000 HDMEC/well, AttoPhos 100 μM): 6653 ± 483 RFU
- Fluorescence ([1]; 1,000 HDMEC/well, AttoPhos 250 μM): 7594 ± 411 RFU
- Fluorescence ([1]; 1,000 HDMEC/well, AttoPhos 500 μM): 9822 ± 930 RFU
- Fluorescence ([1]; 2,500 HDMEC/well, AttoPhos 100 μM): 15566 ± 167 RFU
- Fluorescence ([1]; 2,500 HDMEC/well, AttoPhos 250 μM): 13382 ± 310 RFU
- Fluorescence ([1]; 2,500 HDMEC/well, AttoPhos 500 μM): 20580 ± 436 RFU
- Fluorescence ([1]; 5,000 HDMEC/well, AttoPhos 100 μM): 28018 ± 817 RFU
- Fluorescence ([1]; 5,000 HDMEC/well, AttoPhos 250 μM): 25468 ± 843 RFU
- Fluorescence ([1]; 5,000 HDMEC/well, AttoPhos 500 μM): 34112 ± 1797 RFU
- Fluorescence ([1]; 10,000 HDMEC/well, AttoPhos 100 μM): 35787 ± 1325 RFU
- Fluorescence ([1]; 10,000 HDMEC/well, AttoPhos 250 μM): 40725 ± 1850 RFU
- Fluorescence ([1]; 10,000 HDMEC/well, AttoPhos 500 μM): 54430 ± 133 RFU
- Km ([1]; HDMEC, BBTP 1.5 mM, 1 h at RT, read-out: Km): 80 µM
- Km ([1]; human dermal microvascular endothelial cells, read-out: apparent Km): ~100 µM
- Fluorescence ([2]; 250 3T3 cells/well): 1866 ± 100 RFU
- Fluorescence ([2]; 500 3T3 cells/well): 3194 ± 172 RFU
- Fluorescence ([2]; 1,000 3T3 cells/well): 6149 ± 176 RFU
- Fluorescence ([2]; 2,000 3T3 cells/well): 10115 ± 840 RFU
- Fluorescence ([2]; 4,000 3T3 cells/well): 21314 ± 1558 RFU
- Fluorescence ([2]; 8,000 3T3 cells/well): 44831 ± 1793 RFU
- Fluorescence ([2]; 10,000 3T3 cells/well): 49860 ± 556 RFU
- Km ([2]; NIH 3T3 mouse embryonic fibroblasts, BBTP 0.5 mM, 1, at RT): 87 µM
- Km (HL-60 acid phosphatase): 108 µM
- Km (K562 acid phosphatase): 82 µM
- Km (2008 acid phosphatase): 106 µM
- Fluorescence ([3]; 625 HUVEC/well, 96-well plate, AttoPhos 250 μM): 1695 ± 65 RFU
- Fluorescence ([3]; 625 HUVEC/well, 96-well plate, AttoPhos 500 μM): 1561 ± 39 RFU
- Fluorescence ([3]; 625 HUVEC/well, half area 96-well (A/2) plate, AttoPhos 250 μM): 1867 ± 68 RFU
- Fluorescence ([3]; 625 HUVEC/well, half area 96-well (A/2) plate, AttoPhos 500 μM): 2040 ± 55 RFU
- Fluorescence ([3]; 1,250 HUVEC/well, 96-well plate, AttoPhos 250 μM): 2853 ± 180 RFU
- Fluorescence ([3]; 1,250 HUVEC/well, 96-well plate, AttoPhos 500 μM): 2737 ± 106 RFU
- Fluorescence ([3]; 1,250 HUVEC/well, half area 96-well (A/2) plate, AttoPhos 250 μM): 3438 ± 132 RFU
- Fluorescence ([3]; 1,250 HUVEC/well, half area 96-well (A/2) plate, AttoPhos 500 μM): 3757 ± 132 RFU
- Fluorescence ([3]; 2,500 HUVEC/well, 96-well plate, AttoPhos 250 μM): 5019 ± 188 RFU
- Fluorescence ([3]; 2,500 HUVEC/well, 96-well plate, AttoPhos 500 μM): 5186 ± 125 RFU
- Fluorescence ([3]; 2,500 HUVEC/well, half area 96-well (A/2) plate, AttoPhos 250 μM): 6664 ± 128 RFU
- Fluorescence ([3]; 2,500 HUVEC/well, half area 96-well (A/2) plate, AttoPhos 500 μM): 7046 ± 240 RFU
- Fluorescence ([3]; 5,000 HUVEC/well, 96-well plate, AttoPhos 250 μM): 10578 ± 119 RFU
- Fluorescence ([3]; 5,000 HUVEC/well, 96-well plate, AttoPhos 500 μM): 10406 ± 498 RFU
- Fluorescence ([3]; 5,000 HUVEC/well, half area 96-well (A/2) plate, AttoPhos 250 μM): 12807 ± 399 RFU
- Fluorescence ([3]; 5,000 HUVEC/well, half area 96-well (A/2) plate, AttoPhos 500 μM): 14586 ± 498 RFU
- Fluorescence ([3]; 10,000 HUVEC/well, 96-well plate, AttoPhos 250 μM): 20670 ± 967 RFU
- Fluorescence ([3]; 10,000 HUVEC/well, 96-well plate, AttoPhos 500 μM): 21198 ± 240 RFU
- Fluorescence ([3]; 10,000 HUVEC/well, half area 96-well (A/2) plate, AttoPhos 250 μM): 25684 ± 1488 RFU
- Fluorescence ([3]; 10,000 HUVEC/well, half area 96-well (A/2) plate, AttoPhos 500 μM): 28302 ± 448 RFU
- Fluorescence ([3]; 20,000 HUVEC/well, 96-well plate, AttoPhos 250 μM): 37889 ± 501 RFU
- Fluorescence ([3]; 20,000 HUVEC/well, 96-well plate, AttoPhos 500 μM): 38528 ± 1540 RFU
- Fluorescence ([3]; 20,000 HUVEC/well, half area 96-well (A/2) plate, AttoPhos 250 μM): 46409 ± 1009 RFU
- Fluorescence ([3]; 20,000 HUVEC/well, half area 96-well (A/2) plate, AttoPhos 500 μM): 49706 ± 790 RFU
- Km ([3]; HUVEC, BBTP 0.5 mM, 1 h at RT): 88 µM
